Measured values taken from publication PMC11084152, “Galf-Specific Neolectins: Towards Promising Diagnostic Tools” (International Journal of Molecular Sciences, 2024).
Read-outs that look alike come from different tables or passages of the source.

What was measured:
GalfNeoLect = GalfNeoLect (Streptomyces sp. JHA19, UniProt A0A0K2SRV3, E464Q); assay: Competitive inhibition assay of GalfNGP binding to immobilised GalfNeoLect; design: species or system Streptomyces sp. strain JHA19; conditions: for IC50: biotinylated GalfNGP (2 μg/mL) as tracer, read-out: IC50 of inhibitors towards GalfNeoLect; for inhibition of GalfNGP binding to immobilised GalfNeoLect: result in words
Protocol: In the competitive inhibition assay, we investigated the ability of selected pNP, azido, or thyoaryl monosaccharide substrates (Galf-N3, Galf-thioaryl, pNP-β-D-Galf, pNP-β-D-Galp, pNP-α-L-Araf, pNP-β-D-Ribf) (Figure 5) for their ability to inhibit the binding of GalfNGP to immobilised GalfNeoLect.
(§1) The interaction profiles of each compound were determined through an indirect method, based on the inhibition by the compound of the interaction between a specific coupled lectin–glycan (a neoglycoprotein labelled with biotin and used as a tracer). Briefly, a mix of biotinylated GalfNGP (fixed concentration) and the corresponding compounds (in a range of concentrations), prepared in PBS supplemented with 1 mM CaCl2 and 0.5 mM MgCl2, are deposed in each well (50 μL each) in triplicate and incubated for 2 h at room temperature. After washing with PBS buffer, the conjugate streptavidin-DTAF was added (50 μL) and incubated for 30 min more. The plate was washed again with PBS. Finally, 100 μL of PBS was added for the readout of the fluorescent plate, performed with a fluorescence reader (λex = 485 nm, λem = 530 nm, Fluostar OPTIMA, BMG LABTECH, France). The signal intensity was inversely correlated with the capacity of the compound to be recognised by the lectin and expressed as inhibition percentage with comparison with the corresponding biotinylated GalfNGP alone.
Aspergillus brasiliensis (ATCC 16404) culture was inoculated on Sabouraud agar plates and incubated at 37 °C for 4 days until the formation of a black mycelium mat, which contains spores. Fresh spores were harvested with a sterile plastic inoculation loop by rubbing the black mycelium mat and dispersed in physiological serum solution (0.8% NaCl, 10 mL). The spore solution was resuspended well by using a vortex to prevent aggregation and was calibrated using a Malassez counting chamber to 5.10^6 spores/mL. Spores’ solutions (5.10^6 spores/mL) were used directly in inhibition assays with GalfNeoLect, following the same protocol describe above (Section 4.8).

wild-type Galf-ase [1] = target: T1, wild-type Galf-ase (Streptomyces sp. JHA19, UniProt A0A0K2SRV3); assay: Competitive inhibition assay of GalfNGP binding to wild-type Galf-ase; design: species or system Streptomyces sp. strain JHA19; conditions: biotinylated GalfNGP (2 μg/mL) as tracer; read-out: IC50 of inhibitors towards wild-type Galf-ase
Protocol: Indeed, Table 6 summarises the 50% inhibitory concentrations (IC50) obtained from all compounds studied.
as §1
Target sequence in this assay (A0A0K2SRV3 45-786 limits assumed): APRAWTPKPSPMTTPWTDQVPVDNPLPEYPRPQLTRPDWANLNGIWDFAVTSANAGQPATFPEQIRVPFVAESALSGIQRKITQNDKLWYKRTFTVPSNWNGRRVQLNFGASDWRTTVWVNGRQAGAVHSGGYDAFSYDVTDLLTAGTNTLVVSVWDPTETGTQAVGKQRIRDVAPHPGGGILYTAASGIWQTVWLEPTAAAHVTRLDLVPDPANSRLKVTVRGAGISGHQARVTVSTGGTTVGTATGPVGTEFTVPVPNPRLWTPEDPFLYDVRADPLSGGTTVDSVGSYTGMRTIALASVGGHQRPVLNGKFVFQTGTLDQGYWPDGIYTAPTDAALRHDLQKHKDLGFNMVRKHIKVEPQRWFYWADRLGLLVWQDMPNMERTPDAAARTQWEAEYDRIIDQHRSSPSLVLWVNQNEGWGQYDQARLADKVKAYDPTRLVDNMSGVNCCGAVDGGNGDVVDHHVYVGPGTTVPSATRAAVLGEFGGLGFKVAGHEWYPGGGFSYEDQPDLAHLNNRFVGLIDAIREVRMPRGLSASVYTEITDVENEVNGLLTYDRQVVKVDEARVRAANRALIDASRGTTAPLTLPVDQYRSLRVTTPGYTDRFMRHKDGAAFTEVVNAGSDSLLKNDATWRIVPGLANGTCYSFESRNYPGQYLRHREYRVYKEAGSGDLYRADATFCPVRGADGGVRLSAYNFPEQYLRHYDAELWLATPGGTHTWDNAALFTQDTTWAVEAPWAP

E464Q (GalfNeoLect) = system: T2, E464Q (GalfNeoLect); assay: Absorbance at 405 nm of p-nitrophenol released by hydrolysis of pNP-β-D-Galf (0.01-5 mM), citrate/phosphate buffer pH 4.5, 37 °C, 20 min, stopped with Na2CO3.; assay type: biochemical; conditions: n = 3
T2 construct: pET-28a(+) construct, expressed in E. coli Rosetta (DE3), Ni-NTA purified
Protocol: (§2) In analysing the hydrolitic activity and the hydrolysis rate-limiting steps of the three Galf-ase mutant variants E464S, E464C, and E464Q, the Michaelis–Menten kinetic parameters were determined under the similar conditions used for wild-type enzyme. […] Altogether, the obtained values are in the same order of magnitude. […] The significant decrease in catalytic efficiency by a factor of 3000–1400 times for E464S and E464C mutants, respectively, and 56 times lower for E464Q mutant is observed. These kinetic observations are in accordance with the other data obtained in similar assays used for the identification of the catalytic residues in retaining and inverting several GHs. The Galf-ase mutant variant E464Q featured only a minor change in the KM value, 166 µM compared to 250 µM, of the wild-type Galf-ase and, given the advantage that, contrary to other mutant variants, it was purified in sufficient quantities (0.3 mg/L), it was selected as a promising candidate to be tested as a novel Galf-binding lectin (GalfNeoLect). Further in the article, the E464Q mutant variant is addressed as GalfNeoLect.
(§3) Kinetic parameters were determined with pNP-β-D-Galf as a substrate in different concentration ranges (0.01–5 mM). The reaction (200 μL), containing buffer (20 μL; 0.1 M citric acid/0.2 M Na2HPO4 pH 4.5) and water, if required, was started by addition of the enzyme (2 μL; 0.13 mg/mL) and, after 20 min of incubation at 37 °C (water bath), the reaction was terminated (100 μL; 1 M Na2CO3) and absorbance (405 nm) of released pNP was measured. All the reactions were assayed in triplicate and absorbance values were corrected for the spontaneous hydrolysis of the substrate. The kinetic parameters (KM, Vm, kcat) were calculated using GraphPad Prism 5 software (GraphPad Software, San Diego, CA, USA).
(§4) Figure S4. Michaelis–-Menten plot of pNP-β-D-Galf hydrolysis reaction catalysed by Galf-ase E464S, E464C, and
(§5) E464Q mutant variants. Mean values and SD error bars were calculated from three independent experiments
(§6) (*except E464C) and from a single protein preparation. […]

E464C = system: T3, E464C; assay: as above; assay type: biochemical; conditions: n = 3
T3 construct: pET-28a(+) construct, expressed in E. coli Rosetta (DE3), Ni-NTA purified
Protocol: as §2, §3, §4, §5, §6

E464S = system: T4, E464S; assay: as above; assay type: biochemical; conditions: n = 3
T4 construct: pET-28a(+) construct, expressed in E. coli Rosetta (DE3), Ni-NTA purified
Protocol: as §2, §3, §4, §5, §6

[2] = system: T5, Galf-ase (wild-type Galf-ase; E464); assay: as above; assay type: biochemical; conditions: n = 3; cited from earlier work
T5 construct: pET-28a(+) construct, expressed in E. coli Rosetta (DE3), Ni-NTA purified
Protocol: as §2, with “Further in the article, the E464Q mutant variant is addressed as GalfNeoLect.” left out
Kinetic parameters were determined with pNP-β-D-Galf as a substrate in different concentration ranges (0.01–5 mM). […] All the reactions were assayed in triplicate and absorbance values were corrected for the spontaneous hydrolysis of the substrate. The kinetic parameters (KM, Vm, kcat) were calculated using GraphPad Prism 5 software (GraphPad Software, San Diego, CA, USA). […]

wild-type Galf-ase [3] = target: T1, wild-type Galf-ase; assay: Direct binding assay (ELLA) of biotinylated neoglycoproteins to immobilised wild-type Galf-ase; design: species or system Streptomyces sp. strain JHA19; conditions: read-out: BC50 (concentration to obtain 50% GalfNGP binding)
Text: To study and evaluate the binding interactions of Galf-ase E464Q mutant variant, as novel Galf-binding lectin (GalfNeoLect), we synthetised novel neoglycoproteins (NGPs) to serve as the Galf-bearing scaffold. Bovine serum albumin (BSA), a well-known, naturally unglycosylated protein that has up to 60 primary amino functional groups available for click-conjugation chemistry, has been functionalised with Galf motifs. Galf-N3, involved in the corresponding click reaction with propargyl functionalised BSA, was obtained from the corresponding per-O-acetyl galactofuranose using TMSN3 as a source of azide and TMSOTf as the Lewis acid (see ESI for chemical synthesis). After acetyl cleavage, the resulting/expected Galf-conjugated BSA neoglycoprotein (GalfNGP) synthesis has been first characterised for its functionality by direct binding assay with human Intelectin-1 (hIntL-1), wild-type Galf-ase, and GalfNeoLect. As hIntL-1 has been reported to bind furanose residues (five-membered-ring saccharide isomers), including a β-Galf–containing disaccharide, it served as a positive control for the evaluation of newly synthetised GalfNGP. […]
The assays were performed according to GlycoDiag’s protocol, already described in the literature. […] Finally, 100 μL of PBS was added for reading the plate using a fluorescence reader (λex = 485 nm, λem = 530 nm, Fluostar OPTIMA, BMG LABTECH, France). […]

Sequence of GalfNeoLect (A0A0K2SRV3 45-786 E464Q limits assumed): as the sequence (A0A0K2SRV3 45-786 limits assumed) above, with E420Q counted along it

| Molecule | IC50 (GalfNeoLect) [µM] | IC50 (wild-type Galf-ase [1]) [µM] | inhibition of GalfNGP binding to immobilised GalfNeoLect (GalfNeoLect) | other results |
| --- | --- | --- | --- | --- |
| Cc1ccc(S[C@@H]2O[C@@H]([C@H](O)CO)[C@H](O)[C@H]2O)cc1 [Galf-thioaryl] | 180 | 180 |  | IC50 (GalfNeoLect; listed as Galf-Thioaryl): 150 µM |
| O=[N+]([O-])c1ccc(O[C@@H]2O[C@@H]([C@H](O)CO)[C@H](O)[C@H]2O)cc1 [pNP-β-D-Galf, p-nitrophenyl β-D-galactofuranoside] |  |  |  | Km (E464Q (GalfNeoLect)): 166 µM; Km (E464C): 170 µM; Km (E464S): 36 µM; Km [2]: 250 µM |
| GalfNGP: Galf-conjugated bovine serum albumin neoglycoprotein carrying multivalent Galf units |  |  |  | EC50 (wild-type Galf-ase [3]): 24 nM |
| O=[N+]([O-])c1ccc(OC2OC(CO)C(O)C2O)cc1 [pNP-β-D-Ribf] |  |  | no inhibition |  |
| [N-]=[N+]=N[C@@H]1O[C@@H]([C@H](O)CO)[C@H](O)[C@H]1O [Galf-N3, β-D-galactofuranosyl azide] | 1390 | 590 |  |  |
| O=[N+]([O-])c1ccc(O[C@@H]2O[C@H](CO)[C@H](O)[C@H](O)[C@H]2O)cc1 [pNP-β-D-Galp] |  |  | no inhibition |  |
| O=[N+]([O-])c1ccc(O[C@@H]2O[C@@H]([C@H](O)CO)[C@H](O)[C@H]2O)cc1 [pNP-β-D-Galf] | 1140 | 560 |  |  |
| O=[N+]([O-])c1ccc(O[C@@H]2O[C@@H](CO)[C@H](O)[C@H]2O)cc1 [pNP-α-L-Araf] |  |  | no inhibition |  |
